In patent US20260008758A1, “LINEAR DIPEPTIDYL PEPTIDASE 1 INHIBITORS AND USES THEREOF” (Insmed Incorporated, priority 2024, published 2026):
Like-named read-outs stand apart in the source and are kept apart here.

Legend:
DPP1 in HL-60 cells = DPP1 in HL-60 cells (Homo sapiens (Human), UniProt P53634); assay: DPP1 Cell IC50 assay; format: cell-based; settings: H-Gly-Phe-AFC substrate, 60 min pre-incubation
Experimental: Media was changed every three to four days and cells were not allowed to exceed 1×10^6 cells per mL. Prior to assay, cells were collected by centrifugation at 500 rcf for 3 minutes, resuspended in PBS and counted. Cells were diluted in PBS to a concentration of 5×10^5 live cells per mL and transferred to black 96-well plates for assay, 60 μL per well. Test articles were diluted in PBS plus 0.5% DMSO, and 20 μL was added to each assay well. Compound was allowed to pre-incubate with cells with gentle shaking at 100 rpm for 60 minutes at 37° C. in a cell culture incubator maintained at 5% CO2, after which 20 μL of 500 μM H-Gly-Phe-AFC substrate (MP Biomedicals; Solon, OH) was added to each well. Plates were returned to the incubator with shaking at 100 rpm for 30 minutes, after which fluorescence was measured at Excitation/Emission 400/505 nm. % Inhibition was calculated from RFU values compared to control cell wells that received only PBS plus 0.5% DMSO. IC50 values for each compound were calculated via the XLFit (IDBS Version 5.3.1.3) Add-On to Microsoft Excel using the four parameter fit equation y=(A+((B-A)/(1+((C/x)^D)))), which appears as equation number 205 (4 Parameter Logistic Model or Sigmoidal Dose-Response Model) in XLFit.

human DPP1 enzyme = human DPP1 enzyme (Homo sapiens (Human), UniProt P53634); assay: Human DPP1 enzyme IC50 assay; format: biochemical
Outline: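 Fluorogenic readout (350/450 nm, every 5 min over 90 min, 37°C) of H-Gly-Arg-AMC cleavage at 400 μM final substrate. Compounds met activated DPP1 first for a 10-min 37°C pre-incubation in MES buffer pH 6.0 with DTT, 1% DMSO final. Four-parameter sigmoidal fit gave IC50.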

[1] = recombinant human DPP1, H-Gly-Arg-AMC substrate 400 μM

DPP1 in HL-60 cells, sequence (P53634 25-134): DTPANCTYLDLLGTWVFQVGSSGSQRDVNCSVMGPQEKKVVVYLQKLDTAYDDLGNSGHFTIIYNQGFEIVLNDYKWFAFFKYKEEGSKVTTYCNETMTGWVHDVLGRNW
DPP1 in HL-60 cells, sequence (P53634 231-394): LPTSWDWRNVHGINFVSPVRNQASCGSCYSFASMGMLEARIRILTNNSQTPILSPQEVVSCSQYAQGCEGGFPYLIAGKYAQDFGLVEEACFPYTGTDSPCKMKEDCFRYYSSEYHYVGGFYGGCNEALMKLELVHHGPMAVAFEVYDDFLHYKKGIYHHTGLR
DPP1 in HL-60 cells, sequence (P53634 395-463): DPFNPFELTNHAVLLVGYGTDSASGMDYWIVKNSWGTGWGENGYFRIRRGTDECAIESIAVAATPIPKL
human DPP1 enzyme, sequence (P53634 25-134): as the sequence (P53634 25-134) above
human DPP1 enzyme, sequence (P53634 231-394): as the sequence (P53634 231-394) above
human DPP1 enzyme, sequence (P53634 395-463): as the sequence (P53634 395-463) above

SMILES	IC50 (DPP1 in HL-60 cells) [nM]	IC50 (human DPP1 enzyme; [1]) [nM]	IC50 (human DPP1 enzyme) [nM]
CC(C)C(C)(N)C(=O)N[C@H](C#N)Cc1ccc(-c2ccc3oc(=O)n(C)c3c2)cc1 (stereo partly drawn) [Compound 172, 2-amino-N-[(1S)-1-cyano-2-[4-(3-methyl-2-oxo-1,3-benzoxazol-5-yl)phenyl]ethyl]-2,3-dimethylbutanamide]	1 to 2.5	5 to 15	
Cn1c(=O)oc2ccc(-c3ccc(C[C@@H](C#N)NC(=O)CC(N)C4CCCCC4)cc3)cc21 (stereo partly drawn) [Compound 188]	≥ 2.5	≥ 15	
CC(C(=O)N[C@H](C#N)Cc1ccc(-c2ccc3oc(=O)n(C)c3c2)cc1)C1(N)CC1 (stereo partly drawn) [Compound 195]	≥ 2.5	≥ 15	
Cn1c(=O)oc2ccc(-c3ccc(C[C@@H](C#N)NC(=O)C(N)Cc4cccnc4O)cc3)cc21 (stereo partly drawn) [Compound 199, 2-amino-N-[(1S)-1-cyano-2-[4-(3-methyl-2-oxo-1,3-benzoxazol-5-yl)phenyl]ethyl]-3-(2-hydroxypyridin-3-yl)propanamide]	≥ 2.5	≥ 15	
Cn1c(=O)oc2ccc(-c3ccc(C[C@@H](C#N)NC(=O)C(N)Cc4cncs4)cc3)cc21 (stereo partly drawn) [Compound 201, 2-amino-N-[(1S)-1-cyano-2-[4-(3-methyl-2-oxo-1,3-benzoxazol-5-yl)phenyl]ethyl]-3-(1,3-thiazol-5-yl)propanamide]	≥ 2.5	≥ 15	
Cn1c(=O)oc2ccc(-c3ccc(C[C@@H](C#N)NC(=O)[C@@H](N)Cc4cccnc4)cc3)cc21 [Compound 202, (S)-2-amino-N—((S)-1-cyano-2-(4-(3-methyl-2-oxo-2,3-dihydrobenzo[d]oxazol-5-yl)phenyl)ethyl)-3-(pyridin-3-yl)propanamide]	≥ 2.5	5 to 15	
Cn1c(=O)oc2ccc(-c3ccc(C[C@@H](C#N)NC(=O)C(N)Cc4ccccc4O)cc3)cc21 (stereo partly drawn) [Compound 203, 2-amino-N-[(1S)-1-cyano-2-[4-(3-methyl-2-oxo-1,3-benzoxazol-5-yl)phenyl]ethyl]-3-(2-hydroxyphenyl)propanamide]	≥ 2.5	5 to 15	
Cn1c(=O)oc2ccc(-c3ccc(C[C@@H](C#N)NC(=O)C(N)Cc4cocn4)cc3)cc21 (stereo partly drawn) [Compound 204, 2-amino-N-[(1S)-1-cyano-2-[4-(3-methyl-2-oxo-1,3-benzoxazol-5-yl)phenyl]ethyl]-3-(1,3-oxazol-4-yl)propanamide]	1 to 2.5	≤ 5	
Cn1c(=O)oc2ccc(-c3ccc(C[C@@H](C#N)NC(=O)[C@@H](N)[C@@H]4CCc5ccccc54)cc3)cc21 [Compound 206, (S)-2-amino-N—((S)-1-cyano-2-(4-(3-methyl-2-oxo-2,3-dihydrobenzo[d]oxazol-5-yl)phenyl)ethyl)-2-((R)-2,3-dihydro-1H-inden-1-yl)acetamide]	≥ 2.5	≥ 15	
Cn1c(=O)oc2ccc(-c3ccc(C[C@@H](C#N)NC(=O)[C@@H](N)[C@H]4CCc5ccccc54)cc3)cc21 [Compound 207, (S)-2-amino-N—((S)-1-cyano-2-(4-(3-methyl-2-oxo-2,3-dihydrobenzo[d]oxazol-5-yl)phenyl)ethyl)-2-((S)-2,3-dihydro-1H-inden-1-yl)acetamide]	≥ 2.5	≥ 15	
Cn1c(=O)oc2ccc(-c3ccc(C[C@@H](C#N)NC(=O)C(N)Cc4cc[nH]c4)cc3)cc21 (stereo partly drawn) [Compound 208, 2-amino-N-[(1S)-1-cyano-2-[4-(3-methyl-2-oxo-1,3-benzoxazol-5-yl)phenyl]ethyl]-3-(1H-pyrrol-3-yl)propanamide]	≥ 2.5		< 5
Cn1c(=O)oc2ccc(-c3ccc(C[C@@H](C#N)NC(=O)[C@H](N)[C@H]4CCCO4)cc3)cc21 [Compound 211, (2R)-2-amino-N-[(1S)-1-cyano-2-[4-(3-methyl-2-oxo-1,3-benzoxazol-5-yl)phenyl]ethyl]-2-[(2R)-oxolan-2-yl]acetamide]	≥ 2.5	≥ 15	
